The values below come from patent US6194465A, “Benzamide therapeutics for the treatment of inflammatory bowel disease” (priority 1999, dated 2001).

One may read the bioavailability as the share of a dose that reaches the circulation, judged against a reference dose that is usually intravenous.

Series [1] can be described thus: Absolute oral bioavailability (AUC oral vs IV, 20 mg/kg). Format: in vivo, rats. As to conditions: rat, blood. As to the method: Blood concentrations were determined at 0, 0.083, 0.15, 0.5, 1, 2, 4, 8, and 24 hours post-IV dose and 0, 0.5, 1, 2, 4 and 8 hours post-oral dose. Four animals were dosed orally and four animals were dosed intravenously.
The blood samples were analyzed by HPLC. Detection was by UV at 262 nm. Responses were converted to concentrations by comparison to responses from calibration standards injected onto the column. The resulting concentrations were used to calculate the AUC.

The nature of series [2]: PK parameter estimates, 30 mg/kg po (Table 1). The series is classed as in vivo, rats. The settings on record: additional series of bioavailability experiments. As to the method:
The bioavailability of compound N is depicted in FIG. 10 as well. |(NRTs Dosed 30 mg/kg po in 1% Methyl Cellulose, n = 3 rats/NRT)

Series [3] can be described thus: Plasma concentration time course after oral administration. The series is classed as in vivo, rats.
In a further series the test system is TNBS-induced colitis. Put plainly: TNBS model of IBD, Compound A given before TNBS (morphology, tissue weight). The series is classed as in vivo, Male Sprague-Dawley rats. An excerpt:
The trinitrobenzene sulphonic acid ("TNBS") model is one of the standard IBD models used in IBD discovery research, and has been extensively evaluated in rodents. A single enema of TNBS induces a prolonged colonic inflammatory response (up to several weeks) that is transmural and is accompanied by oxidative damage as evidenced by an increase in myeloperoxidase ("MPO") activity. Furthermore, the inflammation is characterized by discrete areas of acute necrosis, inflammation and muscle thickening. Agents with anti-inflammatory effects in patients with IBD show efficacy in this model. Although the mechanism by which TNBS induces an inflammatory response is unknown, it is thought to have an immunological basis.
Male Sprague-Dawley rats (200-250 g) were housed in standard cages (2 per cage) and fed rat chow and tap water ad libitum. After an overnight fast, rats were brought into the laboratory and randomized into treatment groups. Colitis was induced by intrarectal administration of 0.5 ml of TNBS solution (50 mg/kg in 50% ethanol) using a 1 ml syringe attached to a 5 cm polyethylene catheter. Control animals received saline (0.9%) or a 1 % methyl cellulose suspension at identical time points.
Three days after TNBS administration, the rats were sacrificed and the colons excised and opened longitudinally.
The weights of each 5 cm colonic segment were also recorded to assess inflammatory induced edema.
For PO (oral) dosing, Compound A was administered by oral gavage 30 mg/kg as a 1% carboxy methyl cellulose ("CMC") suspension 1 hour prior to the administration of TNBS. Control rats were given CMC only. For IV (intravenous) dosing, Compound A was administered 30 mg/kg by tail vein injection in a 75% PEG/25 % water solution 1 hour prior to administration of TNBS. Control rats were given an injection of 75% PEG/25 % water only. Six rats were dosed for each route of administration.
An additional study was conducted varying the amount of Compound A administered to the rats. Doses of 10 mg/kg, 30mg/kg, and 70 mg/kg were given by oral administration.
A study was run to determine whether or not the effectiveness of Compound A was dependent upon when it was administered relative to the TNBS administration.
Groups of rats (N=11/group) were administered increasing doses of Compound A (0-90 mg/kg-po) 1 hour prior to TNBS enema. In addition to macroscopic assessment, the wet weight of the tissue was also measured as an additional secondary efficacy parameter.

In series [4] the test system is TNBS-induced colonic tissue damage. Kind of series: TNBS model, dosing after TNBS treatment (morphology, MPO, wet weight). The series is classed as in vivo, rats. Here is the method:
As a follow-on set of experiments we investigated the effects of multiple doses of Compound A administered after TNBS treatment.
Experimental conditions were similar to those described above except that rats were given either Compound A (30 mg/kg PO) or vehicle, administered 4, 8 and 24 hours after TNBS treatment for at total of 3 doses.
In another series of experiments to investigate the duration of action of Compound A was designed to advance previous observations and determine whether a single dose of 90 mg/kg po Compound A given either 4, 8, or 24 hrs after the TNBS enema would reduce the colonic damage.
Experimental conditions were similar to those described above except that rats were given a single large dose of Compound A (90 mg/kg PO) or vehicle either 4, 8 or 24 hours after TNBS treatment.

The test system of a further series is SK-N-MC cells. Put plainly: TNF-α induced flux of reactive oxygen species (DCF fluorescence). Format: cell-based. The settings on record: 100 μM test compound, TNF-α 3.0 ng/mL. An excerpt:
Oxidative stress agents (OSA) are thought to be involved in cell death in IBD and are key initiator in the cascade of events leading to apoptosis. The purpose of this study is to evaluate the effect of Compound A on cytokine-induced OSA flux.
To visualize OSA, the dye dihydrodichlorofluorescein diacetate is used. This non-fluorescent dye is taken up by cells and deacetylated to its non-fluorescent congener dihydrodichlorofluorescein (H2 DCF), which is trapped within cells. Reactive oxygen species ("ROS") react with H2 DCF, converting it to the highly fluorescent DCF. DCF fluorescence can be measured spectrofluorometrically and can also be visualized in intact cells using fluorescent microscopy.
SK-N-MC cells (American Type Culture Collection, Rockville, Md.) were plated at 250,000 cells/well in 24-well Corning plates. Following plating, the cells were maintained in retinoic acid medium (5 μM) for five days and then treated with at test compound at 100 μM for 1 hour prior to TNF-α (3.0 ng/mL) treatment. […] Following incubation, cultures were read in a cytofluorometer at 485-530 nm wavelength to detect increased DCF formation. Relative fluorescence units (RFU) values for the respective treatment conditions were compared. In this assay, higher fluorescence readings indicate ROS production. Thus, reductions in fluorescence indicates reduction in ROS production.

The mark [5] stands for this setting: 0-90 mg/kg po, 1 hour prior to TNBS.
The mark [6] stands for this setting: 30 mg/kg PO at 4, 8 and 24 hours after TNBS.

Entries after “also recorded” stand apart in the source; their conditions may differ. Read-outs that look alike come from different tables or passages of the source. Some results are limits rather than exact numbers.

As for `CC(=O)Nc1ccc(C(=O)NC(C)(C)C)cc1` [Compound A, N-tert-butyl-4-acetamidobenzamide], the bioavailability in series [1] (in rats, as restated, read-out: bioavailability) came to 50%. The bioavailability in series [1] (oral 20 mg/kg in 1% methyl cellulose vs IV 20 mg/kg in 75% PEG, read-out: absolute bioavailability) was determined as 52%. Besides, the “bioavailability (in words)” value in series [2] was “excellent bioavailability”. Further, the “lower plasma levels in animals dosed 4 hours before TNBS” value in series [3] (> 6 hours after TNBS, vs dosing 1 hour before) was “approximately 30%”. Besides, the “time after which plasma concentrations begin to decline” value in series [3] (following oral administration) was above 7 h. The Tmax in series [3] (rat, plasma, following oral administration, read-out: time of peak plasma concentration) was in the range of 3 to 4 h. In the series on TNBS-induced colitis (setting [5]), the “colonic morphological score (in words)” value is on record as “dose-dependent reduction” and the “wet weight of colonic segments (in words)” value is on record as “dose-dependent reduction”. The “protective effects, 10 mg/kg” value with TNBS-induced colitis (10 mg/kg oral) is on record as “minimal protective effects”. Besides, the “severity of IBD symptoms / protection from TNBS damage, IV” value in the series on TNBS-induced colitis (30 mg/kg IV, 1 hour before TNBS) is reported as “decreases the severity of IBD symptoms; also recorded: protected from the damage induced by TNBS; also recorded: greater protection seen following IV administration; also recorded: intravenous administration of Compound A also provides protection”. In addition, the “protective effects, 30 mg/kg” value with TNBS-induced colitis (30 mg/kg oral) is listed as “increased protective effects”. Also, in the series on TNBS-induced colitis (30 mg/kg po, 1 hour before TNBS), the “severity of IBD symptoms / protection from TNBS damage, PO” value is “decrease the severity of IBD symptoms; also recorded: protected from the damage induced by TNBS”. The “protection, administered 120 mins before TNBS” value in the series with TNBS-induced colitis (30 mg/kg po, 120 mins pretreatment) is reported as “less protective compared to the 60 min pretreatment period”. The “protective effects, 70 mg/kg” value in the series on TNBS-induced colitis (70 mg/kg oral) was “strongest protective effect”. Besides, the “protection, administered 1 hour before TNBS” value in the series with TNBS-induced colitis (1 hour (60 min) pretreatment) is recorded as “best protection”. The “tissue weight (in words)” value in the series with TNBS-induced colitis (IV and PO, 30 mg/kg) was “suggest protection, but not as convincingly as the morphology and MPO activity results”. In the series on TNBS-induced colitis (IV or PO), the “activity in protecting colon tissue, summary (in words)” value is on record as “good activity in protecting colon tissue from damage”. The “protection, administered 240 mins before TNBS” value with TNBS-induced colitis (single dose, 240 mins pretreatment) was “little protection against morphological changes”. In addition, in series [4] (setting [6]), the “MPO activity, 3 doses after TNBS (in words)” value was “decrease in MPO activity”; the “colonic tissue damage, 3 doses after TNBS” value is recorded as “significantly reduced”; the “tissue wet weight, 3 doses after TNBS (in words)” value is given as “reduction in tissue wet weight”. In addition, the “inflammatory damage, single dose after TNBS” value in series [4] (90 mg/kg po, 4, 8 or 24 hours after TNBS) is reported as “prevents inflammatory damage; also recorded: less efficacy than the 3 dose (30 mg/kg) oral regimen”. For the same molecule, the “ROS induction by TNF-α” value in the series on SK-N-MC cells is “significantly reduced these effects”.
